Experimental data taken from PubChem BioAssay (NCI).
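Protocol summary: plate cells (96-well), add compound at 5 concentrations, incubate 48 h, interpolate endpoints linearly. TGI: concentration producing complete growth inhibition.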

Experiments:
Test in all cases: NCI-60 cell line screen, 48 h
[1] = system: SK-OV-3 ovarian
[2] = system: SK-MEL-5 melanoma
[3] = system: DLD-1 colon
[4] = system: NCI-H226 lung
[5] = system: OVCAR-8 ovarian
[6] = system: NCI-H460 lung
[7] = system: SN12C renal
[8] = system: NCI-H522 lung
[9] = system: MOLT-4 leukemia
[10] = system: TK-10 renal
[11] = system: HCT-15 colon
[12] = system: SF-295 CNS
[13] = system: LOX IMVI melanoma
[14] = system: RXF 393 renal
[15] = system: CCRF-CEM leukemia
[16] = system: U251 CNS
[17] = system: HCC-2998 colon
[18] = system: MALME-3M melanoma
[19] = system: HOP-92 NSCLC
[20] = system: RXF-631 renal
[21] = system: IGROV1 ovarian
[22] = system: UO-31 renal
[23] = system: CAKI-1 renal
[24] = system: SNB-75 CNS
[25] = system: HCT-116 colon
[26] = system: SF-539 CNS
[27] = system: K-562 leukemia
[28] = system: OVCAR-4 ovarian
[29] = system: HT29 colon
[30] = system: SF-268 CNS
[31] = system: HOP-62 NSCLC
[32] = system: UACC-62 melanoma
[33] = system: KM20L2 colon
[34] = system: A549 NSCLC
[35] = system: DMS 114 small cell lung
[36] = system: M14 melanoma
[37] = system: SNB-19 CNS
[38] = system: 786-0 renal
[39] = system: UACC-257 melanoma
[40] = system: COLO 205 colon
[41] = system: LXFL 529 NSCLC
[42] = system: SW-620 colon
[43] = system: DMS 273 small cell lung
[44] = system: KM12 colon
[45] = system: A498 renal
[46] = system: OVCAR-5 ovarian
[47] = system: SK-MEL-2 melanoma
[48] = system: ACHN renal
[49] = system: HL-60(TB) leukemia
[50] = system: SNB-78 CNS
[51] = system: HOP-18 NSCLC
[52] = system: RPMI-8226 leukemia
[53] = system: M19-MEL melanoma
[54] = system: EKVX NSCLC
[55] = system: NCI-H23 lung
[56] = system: SK-MEL-28 melanoma
[57] = system: OVCAR-3 ovarian

`COc1cc(O)c(C(=O)C2Cc3ccccc32)c(OC)c1` (stereo not drawn) was tested, and the TGI [1] was > 100 µM, the TGI [2] was > 100 µM and the TGI [3] was > 100 µM. The TGI [4] was 86 µM, the TGI [5] was > 100 µM and the TGI [6] was > 100 µM. The TGI [7] was > 100 µM, the TGI [8] was > 100 µM and the TGI [9] was 45.8 µM. The TGI [10] was > 100 µM, the TGI [11] was > 100 µM and the TGI [12] was > 100 µM. For the same compound, the TGI [13] was > 100 µM, the TGI [14] was 69.4 µM and the TGI [15] was > 100 µM. For the same compound, the TGI [16] was > 100 µM, the TGI [17] was > 100 µM and the TGI [18] was > 100 µM. For the same compound, the TGI [19] was > 100 µM, the TGI [20] was > 100 µM and the TGI [21] was > 100 µM. The TGI [22] was > 100 µM, the TGI [23] was 72.4 µM and the TGI [24] was > 100 µM. For the same compound, the TGI [25] was > 100 µM, the TGI [26] was > 100 µM and the TGI [27] was > 100 µM. The TGI [28] was > 100 µM, the TGI [29] was > 100 µM and the TGI [30] was > 100 µM. For the same compound, the TGI [31] was > 100 µM, the TGI [32] was > 100 µM and the TGI [33] was > 100 µM. For the same compound, the TGI [34] was > 100 µM, the TGI [35] was 97.2 µM and the TGI [36] was > 100 µM. For the same compound, the TGI [37] was > 100 µM, the TGI [38] was > 100 µM and the TGI [39] was > 100 µM. The TGI [40] was > 100 µM, the TGI [41] was > 100 µM and the TGI [42] was > 100 µM. For the same compound, the TGI [43] was > 100 µM, the TGI [44] was > 100 µM and the TGI [45] was > 100 µM. For the same compound, the TGI [46] was > 100 µM, the TGI [47] was 95 µM and the TGI [48] was > 100 µM. The TGI [49] was 39.7 µM, the TGI [50] was > 100 µM and the TGI [51] was > 100 µM. The TGI [52] was 47.4 µM.
`CCOC(=O)C(=O)CC(=O)C(Br)C(Br)c1ccc(Cl)cc1` (stereo not drawn) was tested, and the TGI [1] was > 100 µM, the TGI [2] was > 100 µM and the TGI [3] was 43.1 µM. For the same compound, the TGI [5] was > 100 µM, the TGI [6] was > 100 µM and the TGI [7] was > 100 µM. For the same compound, the TGI [8] was 45.7 µM, the TGI [9] was 53 µM and the TGI [10] was > 100 µM. The TGI [11] was > 100 µM, the TGI [12] was > 100 µM and the TGI [53] was 52.4 µM. For the same compound, the TGI [13] was 78.1 µM, the TGI [14] was 62.6 µM and the TGI [54] was > 100 µM. For the same compound, the TGI [15] was 29.3 µM, the TGI [55] was 96.1 µM and the TGI [17] was > 100 µM. The TGI [18] was > 100 µM, the TGI [19] was 59.6 µM and the TGI [20] was > 100 µM. The TGI [21] was > 100 µM, the TGI [56] was 72.3 µM and the TGI [22] was > 100 µM. For the same compound, the TGI [23] was > 100 µM, the TGI [24] was > 100 µM and the TGI [27] was 40.8 µM. The TGI [57] was 87.8 µM, the TGI [28] was > 100 µM and the TGI [29] was 34.7 µM. For the same compound, the TGI [30] was > 100 µM, the TGI [31] was > 100 µM and the TGI [32] was > 100 µM. The TGI [33] was > 100 µM, the TGI [34] was > 100 µM and the TGI [35] was > 100 µM. It also gave a TGI [36] of 50.7 µM, a TGI [37] of 64.6 µM and a TGI [38] of 34 µM. For the same compound, the TGI [39] was 90.1 µM, the TGI [40] was 53.5 µM and the TGI [41] was 31.9 µM. The TGI [42] was > 100 µM, the TGI [43] was > 100 µM and the TGI [44] was > 100 µM. The TGI [46] was > 100 µM, the TGI [47] was > 100 µM and the TGI [48] was > 100 µM. The TGI [49] was 42 µM, the TGI [50] was > 100 µM and the TGI [52] was 51.8 µM.
